In assay [1] the target is hyaluronidase enzyme. Kind of assay: hyaluronic acid degradation, DMAB colorimetric, absorbance […] nm. The following applies: hyaluronic acid 1 mg/mL in 0.1 M acetate pH 3.5, CaCl2; positive control. The class given is biochemical.
In assay [2] the target is T1, Collagenase enzyme, from Clostridium histolyticum (ChC).
T1 construct: gene colG; native enzyme preparation, ColG / ColH not distinguished
Kind of assay: FALGPA hydrolysis, absorbance […] nm. The following applies: Tricine buffer 50 mM, 400 mM NaCl, 10 mM CaCl2, pH 7.5, 15 min preincubation; positive control. The class given is biochemical, Hathewaya histolytica.

SMILES strings stand for the structures.

On to `O=c1cc(CO)occ1O` [Kojic acid], for which the “Parameters IC50 (μg/mL) / Hyaluronidase” value in assay [1] was 14.46 ± 0.6 µg/mL.

Turning to `O=c1c(O)c(-c2ccc(O)c(O)c2)oc2cc(O)cc(O)c12` [Quercetin], the “Parameters IC50 (μg/mL) / Collagenase” value in assay [2] stood at 24.83 ± 1.8 µg/mL.

Source of the values: publication PMC9919735, “Cupressus arizonica Greene: Phytochemical Profile and Cosmeceutical and Dermatological Properties of Its Leaf Extracts” (Molecules, 2023).
